Values quoted from earlier work, collected in patent US20250073243A1, “LOW BACK PAIN TREATMENT” (Persica Pharmaceuticals Ltd., priority 2021, published 2025).
Values after ≈ are worked out from the molar mass of the structure shown.

Tests used:
[1] = oral administration; patients with chronic LBP

CC(=O)NC[C@H]1CN(c2ccc(N3CCOCC3)c(F)c2)C(=O)O1 [linezolid, (S)—N-((3-(3-fluoro-4-morpholinophenyl)-2-oxooxazolidin-5-yl)methyl) acetamide]
Cmax observed for a standard linezolid dose (standard 600 mg linezolid dose): approximately 15 μg/ml
half-life of standard linezolid administration (standard linezolid administration): 4 to 5 h
minimum inhibitory concentration (MIC) (Gram-positive bacteria): 1 µg/mL (≈ 2.96 µM)

amoxicillin-clavulanate
improvement in outcome measures [1]: clinically important and statistically significant (p<0.001) improvement in all outcome measures
